pKd: −log10 of the molar value.
Biological target: T1, murine P-glycoprotein (P-gp, ABCB1; abcb1a, mdr3) (Mus musculus, UniProt P21447)
T1 construct: opti-mdr3 gene product expressed in P. pastoris, purified in DDM
Experiment: thermostability shift of purified protein (static light scattering, tryptophan fluorescence, CPM dye) giving KD; cryo-EM with additional density (map a)
Format: binding

T1 sequence (P21447 whole entry): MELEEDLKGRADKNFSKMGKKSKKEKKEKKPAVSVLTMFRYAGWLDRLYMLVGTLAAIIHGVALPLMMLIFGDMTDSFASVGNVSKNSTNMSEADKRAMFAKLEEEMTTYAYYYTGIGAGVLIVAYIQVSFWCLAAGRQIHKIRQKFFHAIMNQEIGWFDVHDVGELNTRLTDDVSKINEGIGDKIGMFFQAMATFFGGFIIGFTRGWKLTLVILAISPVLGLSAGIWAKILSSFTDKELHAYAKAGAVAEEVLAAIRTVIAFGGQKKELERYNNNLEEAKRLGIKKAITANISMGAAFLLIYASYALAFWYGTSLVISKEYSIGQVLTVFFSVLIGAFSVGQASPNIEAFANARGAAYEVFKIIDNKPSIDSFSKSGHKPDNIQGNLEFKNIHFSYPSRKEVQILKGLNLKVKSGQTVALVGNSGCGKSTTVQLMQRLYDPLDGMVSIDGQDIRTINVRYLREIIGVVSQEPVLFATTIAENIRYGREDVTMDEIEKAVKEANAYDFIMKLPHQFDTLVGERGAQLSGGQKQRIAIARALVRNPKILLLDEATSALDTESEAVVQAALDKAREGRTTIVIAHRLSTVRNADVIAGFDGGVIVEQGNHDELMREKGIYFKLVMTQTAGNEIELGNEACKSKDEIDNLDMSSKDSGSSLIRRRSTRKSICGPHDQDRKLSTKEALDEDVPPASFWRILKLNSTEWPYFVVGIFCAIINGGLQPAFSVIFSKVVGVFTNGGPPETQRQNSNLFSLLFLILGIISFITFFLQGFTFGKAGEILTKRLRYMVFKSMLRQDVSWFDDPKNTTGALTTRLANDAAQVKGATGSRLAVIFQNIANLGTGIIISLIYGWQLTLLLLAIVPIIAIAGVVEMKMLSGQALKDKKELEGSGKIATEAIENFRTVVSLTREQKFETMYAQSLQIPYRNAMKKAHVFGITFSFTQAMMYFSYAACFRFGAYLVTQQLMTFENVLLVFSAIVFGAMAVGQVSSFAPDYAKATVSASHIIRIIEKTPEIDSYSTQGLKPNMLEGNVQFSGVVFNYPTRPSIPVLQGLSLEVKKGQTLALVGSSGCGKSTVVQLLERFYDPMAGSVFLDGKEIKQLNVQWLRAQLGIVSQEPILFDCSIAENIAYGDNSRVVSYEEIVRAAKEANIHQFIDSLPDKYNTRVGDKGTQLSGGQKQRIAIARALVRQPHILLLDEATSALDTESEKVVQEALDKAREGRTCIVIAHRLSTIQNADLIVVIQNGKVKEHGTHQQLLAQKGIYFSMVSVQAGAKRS

pKd: 6.70
Structure (SMILES): CC(C)(C)c1cc(C(C)(C)C)c(NC(=O)c2c[nH]c3ccccc3c2=O)cc1O [ivacaftor]
